Laboratory results from patent US7276492B2, “Use of ACE inhibitors for treatment of patients suffering from behavioral disorders” (priority 2000, dated 2007).

Columns and labels:
[1] = tested on: central nervous system; settings: of the persons treated; cited from earlier work
[2] = tested on: temper, rage and outburst behavior disorder (TROBD); assay: Example 1: lisinopril regimen in a patient suffering from TROBD; assay type: in vivo, human; settings: for relief of TROBD by prior treatments: prior treatments of the same patient, before lisinopril
Source text: The TROBD was an endogenous behavioral disorder. […] When confined to their room, the patient would act out with banging and stomping. Episodes were accompanied by physiological changes including dilation of pupils, expressionless face and a rise in blood pressure.
With lisinopril medication as noted above over a period of about four weeks, definite changes in behavior were evident. […] At home, they retreated from a situation triggering the event to their room, where they remained quiet.
Each of the three episodes occurred at school. In one episode, the patient was working on a computer and refused to give up their work station when their allotted time had been used up. […] A second episode was triggered when the patient was asked to make up a class they had missed. They refused to go to the class but voluntarily moved themself to a “cooling room” to allow their temper to subside. They again, when so instructed, walked to the school office without being physically coerced. In a third episode, the patient was asked to leave the classroom because they would not stop talking during a quiet time. In this case, there was a limited degree of acting out in that, while sitting in a chair, they kicked a desk which was knocked over. They then allowed themself to be escorted by police officers to the school office without being physically coerced. In the office, they kicked another desk and was taken by ambulance to a children's hospital for evaluation.

[3] = under treatment, approximately two and one-half months

CCC(=O)O[C@@H](O[P@](=O)(CCCCc1ccccc1)CC(=O)N1C[C@H](C2CCCCC2)C[C@H]1C(=O)O)C(C)C [fosinopril]
incidence of behavior change [1]: less than one | incidence of memory disturbance [1]: less than one | incidence of mood change [1]: less than one

CCOC(=O)[C@H](CCc1ccccc1)N[C@@H](C)C(=O)N1Cc2cc(OC)c(OC)cc2C[C@H]1C(=O)O [moexipril]
incidence of mood change [1]: less than one

COC(=O)C(c1ccccc1)C1CCCCN1 (stereo not shown) [methylphenidate]
relief of TROBD by prior treatments [2]: ineffective to provide adequate relief

C[C@H](N)Cc1ccccc1 [dextroamphetamine]
relief of TROBD by prior treatments [2]: ineffective to provide adequate relief

CCOC(=O)[C@H](CCc1ccccc1)N[C@@H](C)C(=O)N1CCC[C@H]1C(=O)O [enalapril]
incidence of dream abnormality [1]: less than one

NCCCC[C@H](N[C@@H](CCc1ccccc1)C(=O)O)C(=O)N1CCC[C@H]1C(=O)O [lisinopril]
violent outburst during episodes ([2]; lisinopril 10 mg per day oral, about four weeks): without violent outburst | duration of episodes of rage and/or violent behavior ([2]; lisinopril 10 mg per day oral, about four weeks, prior to medication approximately twenty minutes per episode): five to ten | frequency of episodes ([2]; lisinopril 10 mg per day oral, about four weeks, prior to medication two to four episodes per week): approximately one | blood pressure during the three most marked temper-related episodes [2, 3]: 128/64 | degree of violence in episodes compared to behavior prior to treatment [2, 3]: significantly reduced | dilation of pupils [2, 3]: no noticeable dilation of pupils
